Measurements from ChEMBL document CHEMBL3822442, “Synthesis and Pharmacological Characterization of Novel Glucagon-like Peptide-2 (GLP-2) Analogues with Low Systemic Clearance” (J Med Chem, 2016).
Calls of active or inactive are those of the source. No cut-off for these calls is given here. Non-standard residues stand in square brackets, D forms with d. Residues, ends and D or L forms follow the SMILES beside them. ξ: configuration not given here. ξNle = CCCCC(N)C(=O)O

Tests used:
[1] = Protein binding in rat plasma at 200 to 1000 ng/ml incubated for 15 mins by LC/MS/MS based ultracentrifugation method; assay type: ADME, cell-free; settings: read-out: PPB (converted)
[2] = test system: Rattus norvegicus; experiment: Intestinotrophic activity in Sprague-Dawley rat assessed as increase in intestinal growth at 1000 nmol/kg, sc once daily through bolus administration for 5 days relative to control; assay type: functional
[3] = biological target: T1, Glucagon-like peptide 2 receptor (Rattus norvegicus, UniProt Q9Z0W0); experiment: Agonist activity at rat GLP2R expressed in HEK293 cells after 5 hrs by luciferase reporter gene assay; assay type: cell-based
T1 sequence (Q9Z0W0 whole entry): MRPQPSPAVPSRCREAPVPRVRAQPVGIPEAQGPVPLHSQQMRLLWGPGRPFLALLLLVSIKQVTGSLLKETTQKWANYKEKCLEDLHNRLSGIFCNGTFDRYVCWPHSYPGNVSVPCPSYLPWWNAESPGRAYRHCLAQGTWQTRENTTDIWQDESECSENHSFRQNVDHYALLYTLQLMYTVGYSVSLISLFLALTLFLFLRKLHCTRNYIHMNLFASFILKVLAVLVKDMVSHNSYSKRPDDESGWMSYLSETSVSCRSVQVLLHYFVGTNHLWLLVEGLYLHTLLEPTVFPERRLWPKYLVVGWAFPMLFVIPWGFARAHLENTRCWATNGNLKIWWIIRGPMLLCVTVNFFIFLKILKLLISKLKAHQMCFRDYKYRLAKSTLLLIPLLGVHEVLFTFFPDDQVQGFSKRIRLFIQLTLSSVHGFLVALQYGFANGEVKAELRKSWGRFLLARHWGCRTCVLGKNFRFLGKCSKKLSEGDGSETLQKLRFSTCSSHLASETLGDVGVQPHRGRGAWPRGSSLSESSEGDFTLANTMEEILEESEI

[4] = biological target: Glucagon-like peptide 1 receptor (Homo sapiens, UniProt P43220); experiment: Agonist activity at human GLP1R expressed in HEK293 cells after 5 hrs by luciferase reporter gene assay; assay type: cell-based
[5] = Half life in sc dosed human; assay type: ADME, organism-based; settings: in vivo
[6] = biological target: T2, Glucagon-like peptide 2 receptor (Homo sapiens, UniProt O95838); experiment: Agonist activity at human GLP2R expressed in HEK293 cells after 5 hrs by luciferase reporter gene assay; assay type: cell-based
T2 sequence (O95838 whole entry): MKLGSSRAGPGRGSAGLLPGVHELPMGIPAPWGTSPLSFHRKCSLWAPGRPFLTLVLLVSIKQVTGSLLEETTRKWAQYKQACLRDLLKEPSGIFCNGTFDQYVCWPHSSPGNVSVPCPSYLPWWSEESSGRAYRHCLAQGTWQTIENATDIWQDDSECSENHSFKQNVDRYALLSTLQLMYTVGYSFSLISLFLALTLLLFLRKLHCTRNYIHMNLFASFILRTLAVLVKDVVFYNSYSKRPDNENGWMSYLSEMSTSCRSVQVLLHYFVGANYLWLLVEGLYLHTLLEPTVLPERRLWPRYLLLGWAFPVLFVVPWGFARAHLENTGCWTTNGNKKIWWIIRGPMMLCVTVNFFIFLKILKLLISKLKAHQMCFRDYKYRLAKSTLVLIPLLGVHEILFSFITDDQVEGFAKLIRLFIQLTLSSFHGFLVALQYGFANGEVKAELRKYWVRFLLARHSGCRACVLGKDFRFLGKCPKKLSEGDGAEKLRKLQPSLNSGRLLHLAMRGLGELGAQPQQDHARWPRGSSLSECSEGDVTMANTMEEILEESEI

[7] = biological target: Glucagon receptor (Homo sapiens) (UniProt P47871); experiment: Agonist activity at human GCGR expressed in HEK293 cells up to 1000 nM after 5 hrs by luciferase reporter gene assay; assay type: cell-based
[8] = Systemic clearance in Sprague-Dawley rat at 0.2 mg/kg, iv through cassette dosing measured up to 300 mins by LC/MS/MS analysis; assay type: ADME, organism-based; settings: in vivo
[9] = test system: HEK293; experiment: Selectivity ratio of EC50 for human GLP1R expressed in HEK293 cells to EC50 for human GLP2R expressed in HEK293; assay type: cell-based

Sequence of Glucagon-like peptide 1 receptor (P43220 whole entry): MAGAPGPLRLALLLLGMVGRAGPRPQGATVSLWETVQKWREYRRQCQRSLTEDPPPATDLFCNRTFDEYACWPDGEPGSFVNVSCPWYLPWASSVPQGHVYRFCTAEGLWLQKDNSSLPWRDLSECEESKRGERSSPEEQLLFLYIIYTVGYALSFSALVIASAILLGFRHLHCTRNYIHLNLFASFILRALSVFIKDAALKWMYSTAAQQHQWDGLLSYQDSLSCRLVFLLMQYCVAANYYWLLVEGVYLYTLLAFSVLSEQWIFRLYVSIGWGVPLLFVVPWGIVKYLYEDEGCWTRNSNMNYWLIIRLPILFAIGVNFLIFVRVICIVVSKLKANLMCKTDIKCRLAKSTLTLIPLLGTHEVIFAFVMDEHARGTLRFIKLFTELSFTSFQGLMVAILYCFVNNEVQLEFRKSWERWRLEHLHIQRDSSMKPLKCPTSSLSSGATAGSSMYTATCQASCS
Sequence of Glucagon receptor (Homo sapiens) (P47871 whole entry): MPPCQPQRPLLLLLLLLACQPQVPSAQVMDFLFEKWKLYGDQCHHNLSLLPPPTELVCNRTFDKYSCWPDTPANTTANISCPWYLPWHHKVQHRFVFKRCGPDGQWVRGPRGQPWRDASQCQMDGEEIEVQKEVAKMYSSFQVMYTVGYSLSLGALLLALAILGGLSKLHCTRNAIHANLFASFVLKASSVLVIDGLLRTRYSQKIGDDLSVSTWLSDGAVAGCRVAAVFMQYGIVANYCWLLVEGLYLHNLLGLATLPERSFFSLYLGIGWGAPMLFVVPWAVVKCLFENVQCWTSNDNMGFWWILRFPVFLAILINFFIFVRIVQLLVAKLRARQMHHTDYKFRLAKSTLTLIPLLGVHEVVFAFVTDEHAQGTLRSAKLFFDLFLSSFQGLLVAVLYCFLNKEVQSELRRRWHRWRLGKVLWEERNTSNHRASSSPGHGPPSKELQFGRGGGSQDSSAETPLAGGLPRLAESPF

Work on `CC[C@H](C)[C@H](NC(=O)[C@H](Cc1ccccc1)NC(=O)[C@H](CC(=O)O)NC(=O)[C@H](CCCNC(=N)N)NC(=O)[C@H](C)NC(=O)[C@H](C)NC(=O)[C@H](CC(C)C)NC(=O)[C@H](CC(N)=O)NC(=O)[C@H](CC(=O)O)NC(=O)[C@H](CC(C)C)NC(=O)[C@@H](NC(=O)[C@@H](NC(=O)[C@H](CC(N)=O)NC(=O)[C@H](CCSC)NC(=O)[C@H](CCC(=O)O)NC(=O)[C@H](CC(=O)O)NC(=O)[C@H](CO)NC(=O)[C@H](Cc1ccccc1)NC(=O)[C@H](CO)NC(=O)CNC(=O)[C@H](CC(=O)O)NC(=O)CNC(=O)[C@@H](N)Cc1c[nH]cn1)[C@@H](C)O)[C@@H](C)CC)C(=O)N[C@@H](CC(N)=O)C(=O)N[C@@H](Cc1c[nH]c2ccccc12)C(=O)N[C@@H](CC(C)C)C(=O)N[C@H](C(=O)N[C@@H](CCC(N)=O)C(=O)N[C@H](C(=O)N[C@@H](CCCCN)C(=O)N[C@H](C(=O)N[C@H](C(=O)N[C@@H](CC(=O)O)C(=O)O)[C@@H](C)O)[C@@H](C)CC)[C@@H](C)O)[C@@H](C)CC` [TEDUGLUTIDE] yielded a fraction unbound at 0.25 h [1] of 0.419, an Activity [2] of 39% and an EC50 [3] of 0.08 nM. For the same compound, the EC50 [4] was over 1000 nM and the half-life [5] was 180 min.
Compound `CCCCC(NC(=O)[C@H](CCC(=O)O)NC(=O)[C@H](CC(=O)O)NC(=O)[C@H](CO)NC(=O)[C@H](Cc1ccccc1)NC(=O)[C@H](CO)NC(=O)CNC(=O)[C@H](CC(=O)O)NC(=O)CNC(=O)[C@@H](N)Cc1cnc[nH]1)C(=O)N[C@@H](CC(N)=O)C(=O)N[C@H](C(=O)N[C@H](C(=O)N[C@@H](CC(C)C)C(=O)N[C@@H](CC(=O)O)C(=O)N[C@@H](CC(C)C)C(=O)N[C@@H](CC(C)C)C(=O)N[C@@H](C)C(=O)N[C@@H](C)C(=O)N[C@@H](CCCNC(=N)N)C(=O)N[C@@H](CC(=O)O)C(=O)N[C@@H](Cc1ccccc1)C(=O)N[C@H](C(=O)N[C@@H](CC(N)=O)C(=O)N[C@@H](Cc1c[nH]c2ccccc12)C(=O)N[C@@H](CC(C)C)C(=O)N[C@H](C(=O)N[C@@H](CCC(N)=O)C(=O)N[C@H](C(=O)N[C@@H](CCCCN)C(N)=O)[C@@H](C)O)[C@@H](C)CC)[C@@H](C)CC)[C@@H](C)CC)[C@@H](C)O` (stereo not given in full) (H-HGDGSFSDE[ξNle]NTILDLLAARDFINWLIQTK-NH2) has a fraction unbound at 0.25 h [1] of 0.013, an EC50 [6] of 0.1 nM and an EC50 [4] of over 1000 nM. For the same compound, the Activity [7] was “inactive”, the clearance [8] was 0.84 mL/min/kg and the Ratio EC50 [9] was over 10000.
`CCCC[C@H](NC(=O)[C@H](CCC(=O)O)NC(=O)[C@H](CC(=O)O)NC(=O)[C@H](CO)NC(=O)[C@H](Cc1ccccc1)NC(=O)[C@H](CO)NC(=O)CNC(=O)[C@H](CC(=O)O)NC(=O)CNC(=O)[C@@H](N)Cc1cnc[nH]1)C(=O)N[C@H](Cc1ccccc1)C(=O)N[C@H](C(=O)N[C@H](C(=O)N[C@@H](CC(C)C)C(=O)N[C@@H](CC(=O)O)C(=O)N[C@@H](CC(C)C)C(=O)N[C@@H](CC(C)C)C(=O)N[C@@H](C)C(=O)N[C@@H](C)C(=O)N[C@@H](CCCNC(=N)N)C(=O)N[C@@H](CC(=O)O)C(=O)N[C@@H](Cc1ccccc1)C(=O)N[C@H](C(=O)N[C@@H](CC(N)=O)C(=O)N[C@@H](Cc1c[nH]c2ccccc12)C(=O)N[C@@H](CC(C)C)C(=O)N[C@H](C(=O)N[C@@H](CCC(N)=O)C(=O)N[C@H](C(=O)N[C@@H](CCCCN)C(=O)N[C@H](C(=O)N[C@H](C(=O)N[C@@H](CC(=O)O)C(N)=O)[C@@H](C)O)[C@@H](C)CC)[C@@H](C)O)[C@@H](C)CC)[C@@H](C)CC)[C@@H](C)CC)[C@@H](C)O` [listing 1 of 2 here] showed an Activity [2] of 61.2%.
Work on `CCCC[C@H](NC(=O)[C@H](CCC(=O)O)NC(=O)[C@H](CC(=O)O)NC(=O)[C@H](CO)NC(=O)[C@H](Cc1ccccc1)NC(=O)[C@H](CO)NC(=O)CNC(=O)[C@H](CC(=O)O)NC(=O)CNC(=O)[C@@H](N)Cc1cnc[nH]1)C(=O)N[C@H](Cc1ccccc1)C(=O)N[C@H](C(=O)N[C@H](C(=O)N[C@@H](CC(C)C)C(=O)N[C@@H](CC(=O)O)C(=O)N[C@@H](CC(C)C)C(=O)N[C@@H](CC(C)C)C(=O)N[C@@H](C)C(=O)N[C@@H](C)C(=O)N[C@@H](CCCNC(=N)N)C(=O)N[C@@H](CC(=O)O)C(=O)N[C@@H](Cc1ccccc1)C(=O)N[C@H](C(=O)N[C@@H](CC(N)=O)C(=O)N[C@@H](Cc1c[nH]c2ccccc12)C(=O)N[C@@H](CC(C)C)C(=O)N[C@H](C(=O)N[C@@H](CCC(N)=O)C(=O)N[C@H](C(=O)N[C@@H](CCCCN)C(=O)N[C@H](C(=O)N[C@H](C(=O)N[C@@H](CC(=O)O)C(=O)O)[C@@H](C)O)[C@@H](C)CC)[C@@H](C)O)[C@@H](C)CC)[C@@H](C)CC)[C@@H](C)CC)[C@@H](C)O` yielded a fraction unbound at 0.25 h [1] of 0.005, an EC50 [6] of 0.03 nM and an EC50 [4] of over 1000 nM. It also gave a clearance [8] of 0.28 mL/min/kg.
In the case of `CCCC[C@H](NC(=O)[C@H](CCC(=O)O)NC(=O)[C@H](CC(=O)O)NC(=O)[C@H](CO)NC(=O)[C@H](Cc1ccccc1)NC(=O)[C@H](CO)NC(=O)CNC(=O)[C@H](CC(=O)O)NC(=O)CNC(=O)[C@@H](N)Cc1cnc[nH]1)C(=O)N[C@H](Cc1ccccc1)C(=O)N[C@H](C(=O)N[C@H](C(=O)N[C@@H](CC(C)C)C(=O)N[C@@H](CC(=O)O)C(=O)N[C@@H](CC(C)C)C(=O)N[C@@H](CC(C)C)C(=O)N[C@@H](C)C(=O)N[C@@H](C)C(=O)N[C@@H](CCCNC(=N)N)C(=O)N[C@@H](CC(=O)O)C(=O)N[C@@H](Cc1ccccc1)C(=O)N[C@H](C(=O)N[C@@H](CC(N)=O)C(=O)N[C@@H](Cc1c[nH]c2ccccc12)C(=O)N[C@@H](CC(C)C)C(=O)N[C@H](C(=O)N[C@@H](CCC(N)=O)C(=O)N[C@H](C(=O)N[C@@H](CCCCN)C(=O)N[C@H](C(=O)N[C@H](C(=O)N[C@@H](CC(=O)O)C(N)=O)[C@@H](C)O)[C@@H](C)CC)[C@@H](C)O)[C@@H](C)CC)[C@@H](C)CC)[C@@H](C)CC)[C@@H](C)O` [listing 2 of 2 here], the fraction unbound at 0.25 h [1] is reported as 0.008, the EC50 [3] is reported as 0.04 nM and the EC50 [6] is reported as 0.03 nM. It also gave an EC50 [4] of over 1000 nM.
For `CCCCC(NC(=O)[C@H](CCC(=O)O)NC(=O)[C@H](CC(=O)O)NC(=O)[C@H](CO)NC(=O)[C@H](Cc1ccccc1)NC(=O)[C@H](CO)NC(=O)CNC(=O)[C@H](CC(=O)O)NC(=O)CNC(=O)[C@@H](N)Cc1cnc[nH]1)C(=O)N[C@H](Cc1ccccc1)C(=O)N[C@H](C(=O)N[C@H](C(=O)N[C@@H](CC(C)C)C(=O)N[C@@H](CC(=O)O)C(=O)N[C@@H](CC(C)C)C(=O)N[C@@H](CC(C)C)C(=O)N[C@@H](C)C(=O)N[C@@H](C)C(=O)N[C@@H](CCCNC(=N)N)C(=O)N[C@@H](CC(=O)O)C(=O)N[C@@H](Cc1ccccc1)C(=O)N[C@H](C(=O)N[C@@H](CC(N)=O)C(=O)N[C@@H](Cc1c[nH]c2ccccc12)C(=O)N[C@@H](CC(C)C)C(=O)N[C@H](C(=O)N[C@@H](CCC(N)=O)C(=O)N[C@H](C(=O)N[C@@H](CCCCN)C(=O)N[C@H](C(=O)N[C@H](C(=O)N[C@@H](CC(=O)O)C(=O)NCC(C)C)[C@@H](C)O)[C@@H](C)CC)[C@@H](C)O)[C@@H](C)CC)[C@@H](C)CC)[C@@H](C)CC)[C@@H](C)O` (stereo not given in full), the fraction unbound at 0.25 h [1] was 0.016, the EC50 [6] was 0.06 nM and the EC50 [4] was over 1000 nM. For the same compound, the clearance [8] was 0.17 mL/min/kg and the Ratio EC50 [9] was over 16000.
